# Data reported in patent US8575164B2, “Combination cancer therapy” (OSI Pharmaceuticals, LLC, priority 2005, dated 2013).
# Like-named read-outs stand apart in the source and are kept apart here.
# What was measured:
# [1] = tested on: H292 human non-small cell lung carcinoma cell line; conditions: H292 cells in culture; single agent or combination
# Experimental: To monitor cell apoptosis, DNA fragmentation was measured by using a commercially available kit from Roche. Cells were plated in 90 ul of 10% serum-containing growth media at a density of 5000 cells/well in a 96-well culture plate. On day 2, cells were treated with 10 ul of 10× concentrations of drugs or DMSO alone for a final well volume of 100 ul. After 48 h treatment with the drugs, the cells were assayed for DNA fragmentation according to the manufacture instructions. Results were calculated as fold of induction of DNA fragmentation of the DMSO controlled cells.
# [2] = tested on: H292 human non-small cell lung carcinoma cell line; conditions: H292 cells in culture; single agent or combination; remark: listed apart in the source
# Experimental: The basis of the assay is a luminescent quantitation of ATP present in a cell culture plate well. In essence, the greater the number of viable cells in the well, the greater the level of ATP present. […] Results were calculated as a fraction of the DMSO controlled cells.
# colorectal cancer = conditions: cited from earlier work
compound,measurement,setting,value
"C#Cc1cccc(Nc2ncnc3cc(OCCOC)c(OCCOC)cc23)c1 [TARCEVA™, [6,7-bis(2-methoxyethoxy)-4-quinazolin-4-yl]-(3-ethynylphenyl)amine]",induction of apoptosis,[1],induced apoptosis
same,inhibition of cell proliferation,[2],inhibited cell proliferation
O=c1[nH]cc(F)c(=O)[nH]1 [5-fluorouracil],response rates,colorectal cancer; single-agent treatment for advanced colorectal cancer,about 10%
O=C1[O][Pt]2([NH][C@@H]3CCCC[C@H]3[NH]2)[O]C1=O [oxaliplatin],response rates,"colorectal cancer; combined with 5-FU and leucovorin, first-line treatment for colorectal cancer",25-40%
